#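 Briefly, cells in 96-well plates were exposed to five compound concentrations for 48 h, and endpoints were estimated by linear interpolation. The concentration for 50% growth inhibition is given as GI50. TGI denotes the concentration required for complete inhibition of growth.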
# What was measured:
# Assay in all cases: growth of human tumour cells (NCI), 48 h
# [1] = test system: A549 NSCLC
# [2] = test system: COLO 205 colon
# [3] = test system: K-562 leukemia
# [4] = test system: MALME-3M melanoma
# [5] = test system: SNB-19 CNS
# [6] = test system: SW-620 colon
# [7] = test system: U251 CNS
# [8] = test system: HS 578T breast
# [9] = test system: MCF7 breast
# [10] = test system: BT-549 breast
SMILES,TGI [1] [µM],TGI [2] [µM],TGI [3] [µM],TGI [4] [µM],TGI [5] [µM],TGI [6] [µM],TGI [7] [µM],GI50 [1] [µM],GI50 [8] [µM],TGI [8] [µM],GI50 [3] [µM],GI50 [4] [µM],GI50 [9] [µM],TGI [9] [µM],GI50 [5] [µM],GI50 [6] [µM],GI50 [7] [µM],TGI [10] [µM],GI50 [10] [µM],GI50 [2] [µM]
NS(=O)(=O)c1ccc(NC(=O)c2cccc3c(=O)c4ccccc4[nH]c23)cc1,> 100,> 100,> 100,94.8,> 100,> 100,> 100,,,,,,,,,,,,,
C=C(COC(C)=O)CC(/C=C(\C)CCC=C(C)C)OC(C)=O (stereo not drawn),> 100,> 100,> 100,,> 100,> 100,> 100,,,,,,,,,,,,,
Cc1ccc2/c(=C/c3ccc(N(C)C)cc3)c3cc(-c4ccccc4)[n+](C)n3c2c1,> 100,,> 100,1.17,> 44.1,1.51,,0.0987,0.035,2.89,< 0.0255,0.0285,0.036,11.3,0.0969,0.186,< 0.01,,,
CC(=O)OCCOCBr,> 100,> 100,> 100,> 100,,> 100,> 100,,,,,,,,,,,,,
COc1ccc(C2C(N)=NCC2c2ccccn2)cc1 (stereo not drawn),> 100,> 100,> 100,> 100,> 100,> 100,> 100,,,,,,,,,,,,,
c1ccc2c(c1)N=C(c1cccc3ccccc13)CC(c1cccc3ccccc13)S2 (stereo not drawn),41.9,28.3,6.32,28.7,12.9,6.81,6.08,,,,,,,,,,,,,
CC/C=C\C/C=C\C1CC(=O)NCCCNCCCCN1 (stereo not drawn),> 100,> 100,,78.9,> 100,> 100,> 100,,,,,,,,,,,,,
O=C1N[C@@H](O)[C@@H]2ON=C(c3ccccc3)[C@H]12,> 100,> 100,> 100,> 100,> 100,> 100,> 100,,,,,,,,,,,,,
COc1cc(/C=C/C(=N\NC(=O)c2ccccc2)c2sc(Nc3ccc(Cl)c(Cl)c3)nc2C)ccc1O,> 100,> 100,95.9,70.6,> 100,> 100,88.9,,,,,,,,,,,,,
O=c1c2ccccc2c2c3c1cccc3c1cccc3c(=O)c4ccccc4c2c31,> 100,> 100,> 100,> 100,> 100,> 100,> 100,,,,,,,,,,,,,
Clc1ccc(CNc2nc3ccccc3nc2-c2cccs2)c(Cl)c1,> 100,> 100,> 100,> 100,> 100,> 100,> 100,,,,,,,,,,,,,
COc1ccc2c(c1)[C@@]13CCN4CC5=CCO[C@H]6CC(=O)N2[C@H]1[C@H]6[C@H]5C[C@H]43,> 100,> 100,,> 100,> 100,> 100,> 100,,,> 100,,,,> 100,,,,> 100,,
CC(=O)c1c(C)n([O-])c2cc(C)c(C)cc2[n+]1=O,> 100,> 100,> 100,> 100,> 100,> 100,> 100,,,,,,,,,,,,,
O=C1c2ccccc2-c2cccc3ccc(Cc4ccccc4)c1c23,> 100,> 100,> 100,> 100,> 100,> 100,> 100,,,,,,,,,,,,,
NC1=NC(=O)C(CC(=O)Nc2ccc([N+](=O)[O-])cc2[N+](=O)[O-])S1 (stereo not drawn),> 100,> 100,,> 100,> 100,> 100,> 100,,,,,,,,,,,,,
COC(=O)NC/C=C\c1nc(CC/C=C\C(=O)OC2CC3CC(=O)O[C@@H](/C=C/CC(C)C)C[C@@H]4CCC(C)C(C[C@@H](OC)CC(C2)O3)O4)co1 (stereo partly drawn),,98.4,12.2,93.4,> 100,> 100,72.4,,32.8,> 100,< 0.01,25.5,< 0.01,> 100,34.4,< 0.01,< 0.01,> 100,9.93,< 0.01
CN(C)C(=S)/N=c1\ss/c(=N\S(=O)(=O)c2ccccc2)n1-c1ccccc1,> 100,,> 100,> 100,,> 100,> 100,,,,,,,,,,,,,
c1cc[c]([Sn]([S]c2cccc3cccnc23)([c]2ccccc2)[c]2ccccc2)cc1,0.224,0.0352,,,0.901,0.0918,0.11,0.0331,,,,,,,0.256,0.0225,0.0347,,,0.017
COc1ccc(/C=C/C(=O)c2sc(-n3nc(-c4ccccc4)cc3-c3ccccc3)nc2C)cc1OC,> 100,> 100,83.3,> 100,> 100,> 100,> 100,,,,,,,,,,,,,
COc1ccc(C(=O)C(C(=O)CCC(=O)Nc2cccc(C(F)(F)F)c2)c2ccccc2)cc1 (stereo not drawn),> 100,> 100,> 100,> 100,> 100,> 100,> 100,,,,,,,,,,,,,
CC1CCCC(C(=O)/C(=C/c2cccc(Cl)c2)C(=O)C(=O)O)C1 (stereo not drawn),> 100,> 100,47.4,> 100,> 100,27.7,32.5,,,,,,,,,,,,,
NC(N)=N/N=C/c1c(-c2ccccn2)nc2sc(Cl)cn12,14,17,13.8,,16,11.8,15.1,6.87,8.91,17.3,3.4,,13.2,50,7.97,5.29,8.28,15.2,8.25,6.26

SMILES,TGI [1] [µM],TGI [2] [µM],TGI [3] [µM],TGI [4] [µM],TGI [5] [µM],TGI [6] [µM],TGI [7] [µM],GI50 [1] [µM],GI50 [8] [µM],TGI [8] [µM],GI50 [3] [µM],GI50 [4] [µM],GI50 [9] [µM],TGI [9] [µM],GI50 [5] [µM],GI50 [6] [µM],GI50 [7] [µM],TGI [10] [µM],GI50 [10] [µM],GI50 [2] [µM]
Clc1cc(Cl)c2c(Cl)cc(Cl)c3c2c1N=S=N3,> 100,> 100,> 100,> 100,> 100,> 100,> 100,,,,,,,,,,,,,
Cn1c(N)nc2c(nc(OCc3ccccc3)n2C2OC(CO)C(O)C2O)c1=O (stereo not drawn),> 100,> 100,> 100,> 100,> 100,> 100,> 100,,,> 100,,,,> 100,,,,,,
COc1ccc(C2=NC(C)(C)CO2)cc1,> 100,> 100,> 100,> 100,> 100,> 100,> 100,,,,,,,,,,,,,
COc1ccc2c(c1)C=CC(C#N)N2C(=O)c1ccccc1 (stereo not drawn),> 100,< 0.048,> 100,,> 100,> 100,> 100,< 0.01,< 0.01,> 100,< 0.01,,< 0.01,> 100,< 0.01,< 0.01,< 0.01,> 67.5,,< 0.01
Cc1c(C(=O)NN)nnn1-c1ccnc2c(C(F)(F)F)cccc12,> 100,> 100,> 100,,> 100,> 100,,> 100,> 100,> 100,> 100,,> 100,> 100,> 100,> 100,,> 100,> 100,> 100
CCCS(=O)(=O)c1nc(NC2CC2)cc(-c2ccc3c(ccn3C3CC(C)(C)NC(C)(C)C3)c2)n1,,3.39,2.48,,,,,,2.1,4.93,0.777,,,,,,,,,1.84
CCCSc1cc(Cl)nc(N)n1,> 100,> 100,> 100,> 100,> 100,> 100,> 100,> 100,,,> 100,> 100,> 100,> 100,> 100,> 100,> 100,> 100,65.1,> 100
COc1ccc(-c2cc(-c3cc(Cl)ccc3Cl)nc3nc(=S)[nH]c(N)c23)cc1,41.8,> 100,,,> 100,> 100,72.1,15.2,14.6,74.8,,,20.1,> 100,58.1,38.7,22.1,> 100,54.9,85.7
CNC(=O)c1cc(Oc2ccc(NC(=O)Nc3ccc(Cl)c(OC(F)(F)F)c3)c(F)c2)ccn1,> 33.2,7.65,8.22,,20.7,> 33.2,13.7,2.03,3.81,> 33.2,1.22,,1.12,7.17,3.06,2.13,2.32,14,3.17,1.14
Oc1c2c(c(O)c3ccccc13)=N[C@@H](c1ccccc1)[C@H](c1ccccc1)N=2,> 100,,> 100,> 100,> 100,> 100,> 100,,,,,,,,,,,,,
CN(C)c1nc(-c2cccs2)n2nc(-c3ccc(Cl)cc3)cc2n1,,,> 100,,> 100,> 100,,,3.11,> 100,> 100,,> 100,> 100,64.1,> 100,,> 100,62.8,
C[C@H]1CCC/C=C/[C@@H]2C[C@H](N)C[C@H]2[C@H](O)/C=C/C(=O)O1,> 100,> 100,> 100,> 100,> 100,> 100,> 100,> 100,> 100,> 100,> 100,52.8,> 100,> 100,> 100,> 100,> 100,,,> 100
CC(C)(C)C1(O)Cc2ccccc2C(=O)O1 (stereo not drawn),> 100,> 100,> 100,> 100,> 100,> 100,> 100,,,,,,,,,,,,,
O=C(Nc1ccc(S(=O)(=O)N[C@@H](C(=O)O)c2ccccc2)cc1)c1ccc(F)cc1,> 100,> 100,> 100,> 100,> 100,> 100,> 100,,,,,,,,,,,,,
CC1=Nc2c(ccc3c2C(=O)c2ccccc2C3=O)NC(c2ccncc2)C1 (stereo not drawn),> 100,,> 100,> 100,> 100,> 100,> 100,,,,,> 100,,,> 100,,> 100,,,
O=C1c2ccccc2-c2c1c1ccccc1c(=O)n2CCNCCCNCCn1c2c(c3ccccc3c1=O)C(=O)c1ccccc1-2,0.662,1.59,,,> 50,0.58,0.371,0.0521,0.738,2.74,,,0.0885,,0.389,< 0.005,0.146,1.9,0.629,0.637
CN1CCN(C)C1c1cccc(C2N(C)CCN2C)c1,,> 100,> 100,,> 100,,> 100,,,,,,,,,,,,,
COc1cc(/C=C\c2ccc(O)cc2)cc(OC)c1OC,> 100,13.9,> 100,> 40.9,> 100,> 100,> 23.6,,,,,,,,,,,,,
C=C(C)[C@@H]1CC[C@@]2(C(=O)O)CC[C@]3(C)C(CCC4[C@@]5(C)CCC(OS(=O)(=O)c6ccccc6)C(C)(C)C5CC[C@]43C)C12 (stereo partly drawn),17.7,18.2,,26,32.7,15.2,15.7,2.44,8,42.4,,12.2,4.4,19.6,10.1,3.89,3.62,18.7,3.17,5.66
CCOc1cccc2nc3cccc(C(=O)NCCN(C)C)c3nc12,> 100,3.52,2.62,2.42,11.2,,9.26,,,,,,,,,,,,,
CC1(C)CCc2cc3c(cc2O1)OCCC3=O,> 100,> 100,> 100,> 100,> 100,> 100,> 100,,,,,,,,,,,,,
